Reference: ChEMBL document CHEMBL2424627, “Synthesis of novel bioactive pyrazolothiazoles” (Med Chem Res, 2013)

Tests used:
[1] = Cytotoxicity against human THP1 cells assessed as cell viability at 10 ug/ml after 24 hrs by CCK-8 assay; type: cell-based; details: THP-1 cells, read-out: Activity
THP-1 [2] = test: Antiinflammatory activity in LPS-stimulated human THP1 cells assessed as inhibition of IL-6 release at 10 ug/ml after 24 hrs by ELISA relative to control; type: functional; details: THP-1, 24 h
THP-1 [3] = test: Antiinflammatory activity in LPS-stimulated human THP1 cells assessed as inhibition of TNFalpha release at 10 ug/ml after 24 hrs by ELISA relative to control; type: functional; details: THP-1, 24 h
[4] = Cytotoxicity against human THP1 cells assessed as cell viability at 1 ug/ml after 24 hrs by CCK-8 assay; details: THP-1 cells
THP-1 [5] = test: Antiinflammatory activity in LPS-stimulated human THP1 cells assessed as inhibition of IL-6 release at 1 ug/ml after 24 hrs by ELISA relative to control; type: functional; details: THP-1, 24 h
THP-1 [6] = test: Antiinflammatory activity in LPS-stimulated human THP1 cells assessed as inhibition of TNFalpha release at 1 ug/ml after 24 hrs by ELISA relative to control; type: functional; details: THP-1, 24 h

| SMILES | viability at 24 h, 10 ug/ml [1] [%] | inhibition at 10 µg/mL (THP-1 [2]) [%] | inhibition at 10 µg/mL (THP-1 [3]) [%] | viability at 24 h, 1 ug/ml [4] [%] | inhibition at 1 µg/mL (THP-1 [5]) [%] | inhibition at 1 µg/mL (THP-1 [6]) [%] |
| --- | --- | --- | --- | --- | --- | --- |
| CCOC(=O)c1cn(-c2ccc(F)cc2)nc1-c1sc(N(C)c2ccccc2)nc1-c1ccccc1 | 33 | 61 | 4 | – | – | – |
| CCOC(=O)c1cn(-c2ccccc2)nc1-c1sc(N(Cc2ccccc2)c2ccccc2)nc1-c1ccccc1 | 21 | 53 | 12 | – | – | – |
| CCOC(=O)c1cn(-c2ccc(Cl)cc2)nc1-c1sc(N(CC)c2ccccc2)nc1-c1ccccc1 | 29 | 58 | 2 | – | – | – |
| CCOC(=O)c1c[nH]nc1-c1sc(N(C)c2ccccc2)nc1-c1ccccc1 | 26 | 71 | 5 | – | – | – |
| CCOC(=O)c1cn(-c2ccc(F)cc2)nc1-c1sc(N(CC)c2ccccc2)nc1-c1ccccc1 | 22 | 48 | 0 | – | – | – |
| CCOC(=O)c1cn(-c2ccccc2)nc1-c1sc(N(C)c2ccccc2)nc1-c1ccccc1 | 25 | 52 | 0 | – | – | – |
| CCOC(=O)c1cn(-c2ccc([N+](=O)[O-])cc2[N+](=O)[O-])nc1-c1sc(N(CC)c2ccccc2)nc1-c1ccccc1 | 35 | 73 | 0 | – | – | – |
| CCOC(=O)c1c[nH]nc1-c1sc(N(Cc2ccccc2)c2ccccc2)nc1-c1ccccc1 | 23 | 78 | 13 | – | – | – |
| CCOC(=O)c1cn(-c2ccccc2)nc1-c1sc(N(CC)c2ccccc2)nc1-c1ccccc1 | 23 | 47 | 0 | – | – | – |
| CCOC(=O)c1cn(-c2ccc(F)cc2)nc1-c1sc(N(Cc2ccccc2)c2ccccc2)nc1-c1ccccc1 | 10 | 46 | 16 | – | – | – |
| CCOC(=O)c1cn(-c2ccc(Cl)cc2)nc1-c1sc(N(Cc2ccccc2)c2ccccc2)nc1-c1ccccc1 | 2 | 20 | 7 | – | – | – |
| C[C@@H]1C[C@H]2[C@@H]3CCC4=CC(=O)C=C[C@]4(C)[C@@]3(F)[C@@H](O)C[C@]2(C)[C@@]1(O)C(=O)CO [DEXAMETHASONE] | – | – | – | 0 | 85 | 72 |
| CCOC(=O)c1cn(-c2ccc([N+](=O)[O-])cc2[N+](=O)[O-])nc1-c1sc(N(C)c2ccccc2)nc1-c1ccccc1 | 17 | 52 | 5 | – | – | – |
| CCOC(=O)c1cn(-c2ccc(Cl)cc2)nc1-c1sc(N(C)c2ccccc2)nc1-c1ccccc1 | 23 | 51 | 11 | – | – | – |
| CCOC(=O)c1c[nH]nc1-c1sc(N(CC)c2ccccc2)nc1-c1ccccc1 | 39 | 56 | 14 | – | – | – |
